Experimental data as given in ChEMBL document CHEMBL3351528, “Targeting dopamine D3 and serotonin 5-HT1A and 5-HT2A receptors for developing effective antipsychotics: synthesis, biological characterization, and behavioral studies” (J Med Chem, 2014).

What was measured:
Mus musculus [1] = assay: Effect on spontaneous exploratory locomotor activity in orally dosed NMRI mouse measured for 30 mins with activity counts each 5 mins; format: ADME, organism-based; conditions: in vivo, po, 0.5 h
Mus musculus [2] = assay: Antipsychotic-like activity in orally dosed NMRI mouse assessed as reduction in methamphetamine-induced locomotor activity dosed 15 to 30 mins before administration of methamphetamine measured for 60 mins; format: functional; conditions: po, read-out: MED
[3] = biological target: T1, Adrenergic receptor alpha-1 (Homo sapiens, UniProt P35348+P25100+P35368); assay: Binding affinity to alpha1 adrenoreceptor (unknown origin)
T1 sequence (P35348 whole entry): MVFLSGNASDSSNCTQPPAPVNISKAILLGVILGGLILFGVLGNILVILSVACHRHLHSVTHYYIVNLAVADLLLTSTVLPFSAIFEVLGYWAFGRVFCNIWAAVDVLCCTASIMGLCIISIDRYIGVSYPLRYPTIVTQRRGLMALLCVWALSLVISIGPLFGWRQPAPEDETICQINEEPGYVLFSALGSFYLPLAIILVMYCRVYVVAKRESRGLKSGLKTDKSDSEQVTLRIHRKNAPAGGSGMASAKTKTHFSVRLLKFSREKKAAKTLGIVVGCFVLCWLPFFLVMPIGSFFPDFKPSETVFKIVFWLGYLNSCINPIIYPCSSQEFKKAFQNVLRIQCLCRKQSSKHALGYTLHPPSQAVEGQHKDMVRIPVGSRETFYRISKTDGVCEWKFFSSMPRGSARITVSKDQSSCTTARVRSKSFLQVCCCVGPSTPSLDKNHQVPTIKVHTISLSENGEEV
T1 sequence (P25100 whole entry): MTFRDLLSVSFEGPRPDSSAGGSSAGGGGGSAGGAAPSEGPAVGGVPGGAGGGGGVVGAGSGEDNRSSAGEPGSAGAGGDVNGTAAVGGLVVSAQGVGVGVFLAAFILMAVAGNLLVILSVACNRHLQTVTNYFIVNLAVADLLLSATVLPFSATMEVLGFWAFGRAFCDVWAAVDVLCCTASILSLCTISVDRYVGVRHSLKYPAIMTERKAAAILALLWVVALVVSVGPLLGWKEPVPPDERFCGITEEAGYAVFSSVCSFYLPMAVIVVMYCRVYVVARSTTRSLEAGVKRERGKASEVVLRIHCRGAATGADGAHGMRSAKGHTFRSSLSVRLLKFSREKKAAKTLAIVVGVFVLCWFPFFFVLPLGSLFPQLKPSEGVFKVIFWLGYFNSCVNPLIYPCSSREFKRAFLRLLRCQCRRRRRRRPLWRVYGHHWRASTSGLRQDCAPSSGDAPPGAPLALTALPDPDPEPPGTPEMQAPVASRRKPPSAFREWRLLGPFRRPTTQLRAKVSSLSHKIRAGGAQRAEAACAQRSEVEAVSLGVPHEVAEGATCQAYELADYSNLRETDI
T1 sequence (P35368 whole entry): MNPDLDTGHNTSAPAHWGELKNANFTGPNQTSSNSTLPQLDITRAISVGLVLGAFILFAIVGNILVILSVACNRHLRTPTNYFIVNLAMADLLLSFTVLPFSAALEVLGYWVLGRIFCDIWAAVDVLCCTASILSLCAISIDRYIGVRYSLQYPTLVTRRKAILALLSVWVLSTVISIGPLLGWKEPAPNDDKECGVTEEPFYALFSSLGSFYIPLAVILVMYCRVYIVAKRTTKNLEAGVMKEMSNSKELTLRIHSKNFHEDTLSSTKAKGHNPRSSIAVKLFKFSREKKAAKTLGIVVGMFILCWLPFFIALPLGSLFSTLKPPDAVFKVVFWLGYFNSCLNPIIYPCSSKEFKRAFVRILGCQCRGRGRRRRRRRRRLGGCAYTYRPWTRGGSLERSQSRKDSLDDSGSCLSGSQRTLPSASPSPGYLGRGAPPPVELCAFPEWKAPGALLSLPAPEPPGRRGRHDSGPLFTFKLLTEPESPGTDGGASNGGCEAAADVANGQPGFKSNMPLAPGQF

Histamine H1 receptor = Histamine H1 receptor (Homo sapiens, UniProt P35367); assay: Binding affinity to human histamine H1 receptor
Sequence of Histamine H1 receptor (P35367 whole entry): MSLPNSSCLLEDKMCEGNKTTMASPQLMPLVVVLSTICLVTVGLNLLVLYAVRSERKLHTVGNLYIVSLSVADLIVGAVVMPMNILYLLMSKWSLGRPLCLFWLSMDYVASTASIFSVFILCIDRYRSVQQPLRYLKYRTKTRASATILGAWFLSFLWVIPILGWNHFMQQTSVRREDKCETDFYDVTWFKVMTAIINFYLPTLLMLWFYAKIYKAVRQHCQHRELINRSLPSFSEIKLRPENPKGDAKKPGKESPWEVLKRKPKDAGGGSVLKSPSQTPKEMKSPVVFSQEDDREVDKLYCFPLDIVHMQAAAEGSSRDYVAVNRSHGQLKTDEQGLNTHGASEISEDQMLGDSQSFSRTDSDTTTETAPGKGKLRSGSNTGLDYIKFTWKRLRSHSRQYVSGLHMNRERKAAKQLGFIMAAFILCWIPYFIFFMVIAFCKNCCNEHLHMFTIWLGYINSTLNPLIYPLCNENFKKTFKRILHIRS

D(3) dopamine receptor [4] = biological target: T2, D(3) dopamine receptor (Homo sapiens, UniProt P35462); assay: Antagonist activity at human dopamine D3 receptor expressed in CHO-K1 cells assessed as reduction in dopamine-induced response by [35S]GTPgammaS binding assay; format: functional, cell-based
T2 sequence (P35462 whole entry): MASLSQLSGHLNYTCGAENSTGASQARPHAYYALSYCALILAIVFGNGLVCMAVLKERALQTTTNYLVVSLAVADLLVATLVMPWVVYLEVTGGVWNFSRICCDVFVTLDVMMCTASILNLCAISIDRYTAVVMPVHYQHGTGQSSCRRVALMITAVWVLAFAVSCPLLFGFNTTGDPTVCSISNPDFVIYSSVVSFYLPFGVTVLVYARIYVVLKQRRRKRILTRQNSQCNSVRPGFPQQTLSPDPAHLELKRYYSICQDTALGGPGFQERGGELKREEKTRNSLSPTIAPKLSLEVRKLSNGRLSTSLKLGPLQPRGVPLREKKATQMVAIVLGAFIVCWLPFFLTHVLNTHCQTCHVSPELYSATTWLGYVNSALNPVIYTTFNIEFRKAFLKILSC

[5] = biological target: T3, 5-hydroxytryptamine receptor 1A (Homo sapiens, UniProt P08908); assay: Agonist activity at human 5HT1A receptor (unknown origin) expressed in CHO cells by [35S]GTPgammaS binding assay; format: functional, cell-based
T3 sequence (P08908 whole entry): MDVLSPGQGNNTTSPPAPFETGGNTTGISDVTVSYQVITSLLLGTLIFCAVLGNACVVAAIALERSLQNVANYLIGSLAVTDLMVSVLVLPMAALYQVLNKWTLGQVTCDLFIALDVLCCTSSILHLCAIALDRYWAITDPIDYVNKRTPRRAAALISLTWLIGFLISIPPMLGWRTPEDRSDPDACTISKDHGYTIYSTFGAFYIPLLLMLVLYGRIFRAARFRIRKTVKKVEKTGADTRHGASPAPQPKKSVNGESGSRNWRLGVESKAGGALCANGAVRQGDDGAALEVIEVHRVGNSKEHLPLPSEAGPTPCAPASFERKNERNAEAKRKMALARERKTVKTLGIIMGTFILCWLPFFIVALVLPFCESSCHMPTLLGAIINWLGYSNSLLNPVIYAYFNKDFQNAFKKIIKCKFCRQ

[6] = biological target: 5-hydroxytryptamine receptor 2A (Rattus norvegicus, UniProt P14842); assay: Antagonist activity at 5HT2A receptor in rat aortic rings assessed as reduction in 5-HT-induced contraction
Sequence of 5-hydroxytryptamine receptor 2A (P14842 whole entry): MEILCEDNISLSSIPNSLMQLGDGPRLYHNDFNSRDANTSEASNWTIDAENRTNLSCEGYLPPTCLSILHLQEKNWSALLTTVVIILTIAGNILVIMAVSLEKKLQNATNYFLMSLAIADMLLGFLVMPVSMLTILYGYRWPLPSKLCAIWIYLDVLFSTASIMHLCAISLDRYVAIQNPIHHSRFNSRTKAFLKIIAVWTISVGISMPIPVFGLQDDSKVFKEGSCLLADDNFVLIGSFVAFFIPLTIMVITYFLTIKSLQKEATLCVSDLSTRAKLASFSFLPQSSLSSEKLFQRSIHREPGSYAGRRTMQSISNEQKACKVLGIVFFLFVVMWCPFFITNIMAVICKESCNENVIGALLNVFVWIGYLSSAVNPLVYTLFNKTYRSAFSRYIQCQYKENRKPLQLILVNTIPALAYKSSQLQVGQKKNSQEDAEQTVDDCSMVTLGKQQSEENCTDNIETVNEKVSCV

[7] = biological target: Voltage-gated inwardly rectifying potassium channel KCNH2 (Homo sapiens, UniProt Q12809); assay: Inhibition of human ERG by whole cell based electrophysiology assay
Sequence of Voltage-gated inwardly rectifying potassium channel KCNH2 (Q12809 whole entry): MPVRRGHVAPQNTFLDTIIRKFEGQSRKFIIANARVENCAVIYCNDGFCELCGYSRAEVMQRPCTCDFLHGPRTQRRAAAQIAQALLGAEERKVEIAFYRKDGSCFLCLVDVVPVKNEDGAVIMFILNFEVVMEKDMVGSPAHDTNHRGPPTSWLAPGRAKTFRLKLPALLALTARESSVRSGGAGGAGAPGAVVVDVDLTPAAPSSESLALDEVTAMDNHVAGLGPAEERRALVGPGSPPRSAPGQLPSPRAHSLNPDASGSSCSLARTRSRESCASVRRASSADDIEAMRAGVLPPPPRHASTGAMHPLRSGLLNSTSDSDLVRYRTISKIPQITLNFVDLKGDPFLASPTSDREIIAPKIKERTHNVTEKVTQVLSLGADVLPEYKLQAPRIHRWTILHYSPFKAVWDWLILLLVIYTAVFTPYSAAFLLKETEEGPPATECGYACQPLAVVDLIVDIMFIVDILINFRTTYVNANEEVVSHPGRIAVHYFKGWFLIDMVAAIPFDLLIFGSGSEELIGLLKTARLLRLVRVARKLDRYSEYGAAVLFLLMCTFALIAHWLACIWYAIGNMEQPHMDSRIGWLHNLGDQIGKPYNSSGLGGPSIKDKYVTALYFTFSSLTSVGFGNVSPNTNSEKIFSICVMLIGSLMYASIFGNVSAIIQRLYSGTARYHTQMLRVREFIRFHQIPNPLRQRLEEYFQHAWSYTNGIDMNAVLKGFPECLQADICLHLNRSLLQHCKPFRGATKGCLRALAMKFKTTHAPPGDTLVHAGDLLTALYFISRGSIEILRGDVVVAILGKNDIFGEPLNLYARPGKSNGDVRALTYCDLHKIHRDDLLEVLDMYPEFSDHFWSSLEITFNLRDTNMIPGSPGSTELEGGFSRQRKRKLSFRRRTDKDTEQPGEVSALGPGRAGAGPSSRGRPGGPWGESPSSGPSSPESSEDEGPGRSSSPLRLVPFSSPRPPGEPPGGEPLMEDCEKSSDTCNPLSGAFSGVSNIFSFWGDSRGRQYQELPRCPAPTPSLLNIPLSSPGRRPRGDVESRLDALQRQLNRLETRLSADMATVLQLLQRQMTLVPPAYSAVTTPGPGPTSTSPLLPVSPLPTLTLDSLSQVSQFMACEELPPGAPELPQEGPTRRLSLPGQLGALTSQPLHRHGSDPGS

hERG (KCNH2) [8] = biological target: T4, hERG (KCNH2) (Homo sapiens, UniProt Q12809); assay: Inhibition of human ERG at 1 uM by whole cell based electrophysiology assay
T4 sequence (Q12809 whole entry): as above

hERG (KCNH2) [9] = biological target: T4, hERG (KCNH2); assay: Inhibition of human ERG at 10 uM by whole cell based electrophysiology assay
Mus musculus [10] = assay: Reduction in startle response in mouse at 30 mg/kg, po dosed 30 mins before testing; format: ADME, organism-based; design: dose 30 mg/kg, route oral; conditions: in vivo, 0.5 h
Mus musculus [11] = assay: Effect on spontaneous locomotor activity in mouse at 30 mg/kg, ip; format: ADME, organism-based; design: dose 30 mg/kg, route intraperitoneal; conditions: in vivo
D(3) dopamine receptor [12] = biological target: T2, D(3) dopamine receptor
Description: Binding affinity to dopamine D3 receptor (unknown origin)

[13] = biological target: T3, 5-hydroxytryptamine receptor 1A
Description: Binding affinity to 5HT1A receptor (unknown origin)

- MED (Mus musculus [1]): <= 3 mg kg-1
- Ki [3]: 0.05 µM
- Ki (Histamine H1 receptor): 0.11 µM
- IC50 (D(3) dopamine receptor [4]): 0.258 µM
- EC50 [5]: 1.8 µM
- IC50 [6]: 2.6 µM
- Ki (D(3) dopamine receptor [12]): 0.0006 µM
- Ki [13]: 0.099 µM
SMILES: O=C(NCCCCN1CCN(c2ccccc2)CC1)c1ccc2ncccc2c1
- minimal effective dose (Mus musculus [2]): > 30 mg/kg
- IC50 [7]: 10 µM
- inhibition at 1 µM (hERG (KCNH2) [8]): 10%
- inhibition at 10 µM (hERG (KCNH2) [9]): 47%
- Activity (Mus musculus [10]): Toxic
- Activity (Mus musculus [11]): Toxic
